The subject of test [1] is Malat-1. As to the kind of experiment: Malat-1 RNA by RT-qPCR in A431 cells. Type of test: cell-based, human. The settings on record: MOE gapmer. Here is the method:
RT-qPCR analysis was performed to detect RNA levels of Malat-1 using primer probe set RTS2736. Results were normalized to cyclophilin A levels (measured using HTS3936). […] Each table below represents results from an individual assay.
(In general: Quantitative PCR measures a nucleic acid by following its amplification.)

For test [2], the system named is Malat-1. The test can be described thus: Malat-1 RNA by RT-qPCR in MHT cells; autophagy modulator, then oligonucleotide by free uptake. Type of test: cell-based, mouse. Conditions: for effect of autophagy modulator on modified oligonucleotide activity (in words): MOE gapmer 399462, relative to DMSO; for effect of autophagy modulator on antisense activity (in words): cEt gapmer 556089, relative to DMSO. Here is the method: MHT cells (a mouse hepatocellular carcinoma cell line) were plated at 20,000 cells/well and treated with DMSO (control) or an autophagy modulator for 24 hours at the concentrations indicated in Table 2 below. 3-MA, BafA1, AZD8055, and leupeptin are […]. […] Fourteen hours after the addition of autophagy modulators, 10 μM of a modified control oligonucleotide or of a modified antisense oligonucleotide was added by free uptake for ten hours. The modified oligonucleotides, shown in Table 1 below, are 3-10-3 cEt gapmers in which every internucleoside linkage is a phosphorothioate internucleoside linkage. The three 5′-terminal nucleosides and the three 3′-terminal nucleosides of each oligonucleotide each comprise a cEt modified sugar moiety. The remaining ten nucleosides of each oligonucleotide each comprise an unmodified, 2′-deoxy sugar moiety.
Using the primer probe sets described in Table 3 below, RT-qPCR analysis was performed to detect RNA levels of Malat-1, shown in Table 4 and markers of autophagy, (Rab7, LAMP2, Atg7, ULK1, ULK2, Atg5, Beclin, and c-Jun), shown in Table 5. Results were normalized to cyclophilin A levels. To control for global effects of autophagy modulators on gene expression, Malat-1 RNA levels after treatment with an antisense oligonucleotide and an autophagy modulator were normalized to Malat-1 RNA levels in cells treated with control Compound No. 549148 and the same autophagy modulator.
MHT cells were plated at 20,000 cells/well and treated with DMSO (control) or an autophagy modulator for 24 hours, at the concentrations indicated Table 7 below. Fourteen hours after the addition of autophagy modulator, control or antisense oligonucleotides (see Table 6) were added at 1 μM, 2.5 μM, 5 μM, or 10 μM by free uptake for ten hours. The modified oligonucleotides, shown in Table 6 below, are 5-10-5 MOE gapmers in which every internucleoside linkage is a phosphorothioate internucleoside linkage. The five 5′-terminal nucleosides and the five 3′-terminal nucleosides of each oligonucleotide each comprise a 2′-MOE modified sugar moiety. The remaining ten nucleosides of each oligonucleotide each comprise an unmodified, 2′-deoxy sugar moiety.
RT-qPCR analysis was performed to detect RNA levels of Malat-1 using primer probe set 15877 (described in Example 1). In order to control for global effects of autophagy modulators on gene expression, Malat-1 RNA levels after treatment with an antisense oligonucleotide and an autophagy modulator were normalized to Malat-1 RNA levels in cells treated with control Compound No. 141923 and the same autophagy modulator. Each table below represents results from an individual assay.

The test system of another test is Atg7. As to the kind of experiment: Atg7 mRNA in mouse liver by RT-qPCR. Type of test: in vivo. Conditions: Table 35; mouse liver 24 h; oligonucleotide 5 mg/kg; rapamycin 5 mg/kg at 0, 12, 22 h. The protocol:
The following experiments were performed to determine if the effects of autophagy modulators on antisense activity in vitro can be observed in vivo. […] Mice were sacrificed at 24 hours after administration of the modified oligonucleotide and tissues were collected for analysis. […] Atg7 mRNA levels are a marker of the induction of autophagy in treated mouse livers. Results are presented as percent change of RNA, relative to PBS control treated with DMSO, normalized to mouse cyclophilin A measured using mouse primer probe set Cyclophilin-A (forward sequence [NT], designated herein as SEQ ID NO: 38; reverse sequence [NT], designated herein as SEQ ID NO: 39; probe sequence [NT], designated herein as SEQ ID NO: 40). […] Following administration of modified oligonucleotide, groups of mice were either allowed free access to chow (control) or fasted overnight (16 hr fast). Mice were sacrificed at 16 hours after administration of the modified oligonucleotide and tissues were collected for analysis. […] Atg7 mRNA levels are a marker of the induction of autophagy in treated mouse livers. Results are presented in Table 33 relative to mice treated with PBS and allowed normal access to chow. […] Mice were sacrificed at 24 hours after administration of the modified oligonucleotide and tissues were collected for analysis. […]

In a further test the test system is LC3B. As to the kind of experiment: Liver protein analysis in mice: LC3B II/I ratio. Type of test: in vivo. The settings on record: Table 34; mouse liver 24 h; oligonucleotide 5 mg/kg (or PBS); Treatment Rapamycin 5 mg/kg at 0, 12, 22 h. The protocol: (§1) The following experiments were performed to determine if the effects of autophagy modulators on antisense activity in vitro can be observed in vivo. Groups of 3-4 8-week-old male C57bl/6J mice were administered 5 mg/kg control oligonucleotide 141923, or 5 mg/kg antisense oligonucleotide 399462. Following administration of modified oligonucleotide, mice were administered 1% DMSO or 5 mg/kg AZD8055 in 1% DMSO at three time points over 24 hours: at the time of administration of the modified oligonucleotide, and 12 and 22 hours after administration of the modified oligonucleotide. A group of control mice was administered PBS at time 0 and 1% DMSO at 0, 12, and 22 hours. Mice were sacrificed at 24 hours after administration of the modified oligonucleotide and tissues were collected for analysis.
(§2) Autophagy activation was confirmed in livers by determining suppression of mTOR kinase activity (pS6/S6 levels), determining an increased LC3B II/I ratio (a marker for the formation of autophagosomes), and determining p62 degradation (related to the clearance of autophagosomes). Protein analysis was carried out on liver tissue using standard procedures. All proteins were normalized to α-tubulin. Phospho-S6 Ribosomal Protein (Ser240/244) (2215S), and S6 Ribosomal Protein (2217S) antibodies were obtained from Cell Signaling Technology. The antibody against LC3B (ab48394) was purchased from Abcam. […]

Test [3] relates to Malat-1. As to the kind of experiment: MALAT-1 RNA in mouse liver by RT-qPCR. It is filed as in vivo. The settings on record: Table 35; mouse liver 24 h; oligonucleotide 5 mg/kg; rapamycin 5 mg/kg at 0, 12, 22 h. Here is the method: The following experiments were performed to determine if the effects of autophagy modulators on antisense activity in vitro can be observed in vivo. […] Mice were sacrificed at 24 hours after administration of the modified oligonucleotide and tissues were collected for analysis. […] Atg7 mRNA levels are a marker of the induction of autophagy in treated mouse livers. Results are presented as percent change of RNA, relative to PBS control treated with DMSO, normalized to mouse cyclophilin A measured using mouse primer probe set Cyclophilin-A (forward sequence [NT], designated herein as SEQ ID NO: 38; reverse sequence [NT], designated herein as SEQ ID NO: 39; probe sequence [NT], designated herein as SEQ ID NO: 40). […] Following administration of modified oligonucleotide, groups of mice were either allowed free access to chow (control) or fasted overnight (16 hr fast). Mice were sacrificed at 16 hours after administration of the modified oligonucleotide and tissues were collected for analysis. […] Atg7 mRNA levels are a marker of the induction of autophagy in treated mouse livers. Results are presented in Table 33 relative to mice treated with PBS and allowed normal access to chow. […] Mice were sacrificed at 24 hours after administration of the modified oligonucleotide and tissues were collected for analysis. […] Atg7 mRNA levels are a marker of the induction of autophagy in treated mouse livers. […] RNA was extracted from liver tissue for real-time RTPCR analysis of MALAT1 RNA expression. Primer probe set 15877 was used to measure mouse MALAT1 RNA levels. Results are presented as percent change of RNA, relative to PBS control, normalized to mouse cyclophilin A measured using mouse primer probe set Cyclophilin-A. […] RNA was extracted from liver tissue for real-time RTPCR analysis of MALAT1 RNA expression. Primer probe set 15877 was used to measure mouse MALAT1 RNA levels. Results are presented as percent change of RNA, relative to PBS control, normalized to mouse cyclophilin A measured using mouse primer probe set Cyclophilin-A.

In the next test the test system is p62. As to the kind of experiment: Liver protein analysis in mice: p62. It is filed as in vivo. The settings on record: Table 34; mouse liver 24 h; oligonucleotide 5 mg/kg (or PBS); Treatment Rapamycin 5 mg/kg at 0, 12, 22 h. Here is the method:
as §1, §2

The test system of test [4] is mTOR kinase activity (pS6/S6 levels). As to the kind of experiment: Liver protein analysis in mice: pS6/S6. Type of test: in vivo. The settings on record: Table 34; mouse liver 24 h; oligonucleotide 5 mg/kg (or PBS); Treatment Rapamycin 5 mg/kg at 0, 12, 22 h.
Procedure: The following experiments were performed to determine if the effects of autophagy modulators on antisense activity in vitro can be observed in vivo. […] Following administration of modified oligonucleotide, mice were administered 1% DMSO or 5 mg/kg AZD8055 in 1% DMSO at three time points over 24 hours: at the time of administration of the modified oligonucleotide, and 12 and 22 hours after administration of the modified oligonucleotide. A group of control mice was administered PBS at time 0 and 1% DMSO at 0, 12, and 22 hours. Mice were sacrificed at 24 hours after administration of the modified oligonucleotide and tissues were collected for analysis.
Protein analysis was carried out on liver tissue using standard procedures. All proteins were normalized to α-tubulin. […] The antibody against LC3B (ab48394) was purchased from Abcam. […] Antibody against P62 (GP62-C) was purchased from Progen.
A group of control mice was administered PBS at time 0 and 1% DMSO at 0, 12, and 22 hours. Mice were sacrificed at 24 hours after administration of the modified oligonucleotide and tissues were collected for analysis. […]

`CC(=O)N[C@@H](CC(C)C)C(=O)N[C@@H](CC(C)C)C(=O)N[C@H](C=O)CCCNC(=N)N` [Leupeptin]: the “effect of autophagy modulator on modified oligonucleotide activity (in words)” value in the test with Malat-1 [1] and with Malat-1 [2] was “significantly enhanced modified oligonucleotide activity” in each case. The “effect of autophagy modulator on antisense activity (in words)” value (shortened to “effect … on antisense activity (in words)”) with Malat-1 [2] was “significantly enhanced antisense activity”.
As to `Cn1cnc(N)c2ncnc1-2` [3-MA, 3-methyladenine], in the test on Malat-1 [2], the “effect of autophagy modulator on modified oligonucleotide activity (in words)” value is “significantly enhanced modified oligonucleotide activity” and the “effect … on antisense activity (in words)” value was “significantly enhanced antisense activity”.
In the case of `CC[C@]1(O)C[C@@H]2CN(CCc3c([nH]c4ccccc34)[C@@](C(=O)OC)(c3cc4c(cc3OC)N(C)[C@H]3[C@@](O)(C(=O)OC)[C@H](OC(C)=O)[C@]5(CC)C=CCN6CC[C@]43[C@@H]65)C2)C1` [Vinblastine], in the test on Malat-1 [2], the “effect of autophagy modulator on modified oligonucleotide activity (in words)” value was “significantly enhanced modified oligonucleotide activity”.
Regarding `CO/C1=C\C(C)=C\[C@@H](C)[C@@H](O)[C@@H](C)C/C(C)=C/C=C/[C@H](OC)[C@@H]([C@@H](C)[C@@H](O)[C@H](C)[C@@]2(O)C[C@@H](O)[C@H](C)[C@@H](C(C)C)O2)OC1=O` [BafA1, Bafilomycin A1], the “effect of autophagy modulator on modified oligonucleotide activity (in words)” value in the test with Malat-1 [1] and in the test on Malat-1 [2] was “significantly enhanced modified oligonucleotide activity” in each case. Further, the “effect … on antisense activity (in words)” value in the test with Malat-1 [2] is given as “significantly enhanced antisense activity”.
Regarding `CCOC(=O)[C@H]1O[C@@H]1C(=O)N[C@@H](CC(C)C)C(=O)NCCC(C)C` [E64D], the “effect of autophagy modulator on modified oligonucleotide activity (in words)” value in the test on Malat-1 [2] is given as “reduced activity of modified oligonucleotide”.
On to `CO[C@H]1C[C@@H]2CC[C@@H](C)[C@@](O)(O2)C(=O)C(=O)N2CCCC[C@H]2C(=O)O[C@H]([C@H](C)C[C@@H]2CC[C@@H](O)[C@H](OC)C2)CC(=O)[C@H](C)/C=C(\C)[C@@H](O)[C@@H](OC)C(=O)[C@H](C)C[C@H](C)/C=C/C=C/C=C/1C` [Rapamycin], for which the “Atg7 level (% relative to PBS/DMSO mice)” value in the test with Atg7 is reported as 111%. Further, in the test on LC3B, the “LC3B II/I ratio” value turned out to be 1.3. Besides, the “Malat-1 level (% relative to PBS/DMSO mice)” value with Malat-1 [3] is given as 89%. In the test with p62, this molecule returned a P62 of 0.8. The pS6/S6 ratio in test [4] is listed as 0.7.
With `CC(C)C(=O)CN1c2nc(N3CCOC[C@H]3C)cc(=O)n2CC[C@H]1C(F)(F)F` [VPS34-IN2], the “effect of autophagy modulator on modified oligonucleotide activity (in words)” value in the test with Malat-1 [1] and in the test on Malat-1 [2] was “significantly enhanced modified oligonucleotide activity” each time.

For the origin of these results see US20210130826A1, “METHODS OF MODULATING ANTISENSE ACTIVITY” (IONIS PHARMACEUTICALS, INC., priority 2018, published 2021).
